Measurements as given in PubChem BioAssay (NCI).
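Test compounds were applied to cells in 96-well plates for 48 hours at 5 doses. The concentration for 50% growth inhibition is given as GI50. TGI: concentration producing complete growth inhibition.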

Assays:
Experiment in all cases: DTP human tumour cell line panel, 48 h
KM12 colon = tested on: KM12 colon
SK-OV-3 ovarian = tested on: SK-OV-3 ovarian
HCT-15 colon = tested on: HCT-15 colon
HL-60(TB) leukemia = tested on: HL-60(TB) leukemia
DU-145 prostate = tested on: DU-145 prostate
SK-MEL-5 melanoma = tested on: SK-MEL-5 melanoma
MDA-MB-435 = tested on: MDA-MB-435
K-562 leukemia = tested on: K-562 leukemia
RPMI-8226 leukemia = tested on: RPMI-8226 leukemia
HS 578T breast = tested on: HS 578T breast
SNB-19 CNS = tested on: SNB-19 CNS
SW-620 colon = tested on: SW-620 colon
LOX IMVI melanoma = tested on: LOX IMVI melanoma
M14 melanoma = tested on: M14 melanoma
MALME-3M melanoma = tested on: MALME-3M melanoma
PC-3 prostate = tested on: PC-3 prostate
SNB-75 CNS = tested on: SNB-75 CNS
OVCAR-5 ovarian = tested on: OVCAR-5 ovarian
TK-10 renal = tested on: TK-10 renal
COLO 205 colon = tested on: COLO 205 colon
IGROV1 ovarian = tested on: IGROV1 ovarian
HCC-2998 colon = tested on: HCC-2998 colon
HT29 colon = tested on: HT29 colon
CAKI-1 renal = tested on: CAKI-1 renal
SK-MEL-2 melanoma = tested on: SK-MEL-2 melanoma
SK-MEL-28 melanoma = tested on: SK-MEL-28 melanoma
OVCAR-3 ovarian = tested on: OVCAR-3 ovarian
NCI/ADR-RES ovarian = tested on: NCI/ADR-RES ovarian
NCI-H460 lung = tested on: NCI-H460 lung
HCT-116 colon = tested on: HCT-116 colon
UACC-257 melanoma = tested on: UACC-257 melanoma
MDA-MB-231 breast = tested on: MDA-MB-231 breast
HOP-92 NSCLC = tested on: HOP-92 NSCLC
OVCAR-4 ovarian = tested on: OVCAR-4 ovarian
SF-539 CNS = tested on: SF-539 CNS
SN12C renal = tested on: SN12C renal
NCI-H23 lung = tested on: NCI-H23 lung
MCF7 breast = tested on: MCF7 breast
CCRF-CEM leukemia = tested on: CCRF-CEM leukemia
UACC-62 melanoma = tested on: UACC-62 melanoma
NCI-H226 lung = tested on: NCI-H226 lung
786-0 renal = tested on: 786-0 renal
A498 renal = tested on: A498 renal
BT-549 breast = tested on: BT-549 breast
UO-31 renal = tested on: UO-31 renal
U251 CNS = tested on: U251 CNS
SF-268 CNS = tested on: SF-268 CNS
HOP-62 NSCLC = tested on: HOP-62 NSCLC
EKVX NSCLC = tested on: EKVX NSCLC
ACHN renal = tested on: ACHN renal
SF-295 CNS = tested on: SF-295 CNS
T-47D breast = tested on: T-47D breast
A549 NSCLC = tested on: A549 NSCLC
MOLT-4 leukemia = tested on: MOLT-4 leukemia
OVCAR-8 ovarian = tested on: OVCAR-8 ovarian
NCI-H522 lung = tested on: NCI-H522 lung
SR leukemia = tested on: SR leukemia

## CC(C)(O)c1cncc(-c2ccc3ncc(C#N)c(N4CCc5cc(F)c(Cl)cc54)c3c2)c1
KM12 colon
  GI50: 6.81 µM
  TGI: > 100 µM
SK-OV-3 ovarian
  GI50: 1.83 µM
  TGI: 8.64 µM
HCT-15 colon
  GI50: 4.28 µM
  TGI: > 100 µM
HL-60(TB) leukemia
  GI50: 6.06 µM
  TGI: 28.2 µM
DU-145 prostate
  GI50: 3.71 µM
  TGI: > 100 µM
SK-MEL-5 melanoma
  GI50: 3.95 µM
  TGI: 13.8 µM
MDA-MB-435
  GI50: 3.36 µM
  TGI: 32.4 µM
K-562 leukemia
  GI50: 7.09 µM
  TGI: > 100 µM
RPMI-8226 leukemia
  GI50: 2.92 µM
  TGI: 87.4 µM
HS 578T breast
  GI50: 1.23 µM
  TGI: 4.7 µM
SNB-19 CNS
  GI50: 4.08 µM
  TGI: > 100 µM
SW-620 colon
  GI50: 4.51 µM
  TGI: > 100 µM
LOX IMVI melanoma
  GI50: 1.81 µM
  TGI: 17.3 µM
M14 melanoma
  GI50: 3.79 µM
  TGI: > 100 µM
MALME-3M melanoma
  GI50: 1.99 µM
  TGI: 7.06 µM
PC-3 prostate
  GI50: 2.86 µM
  TGI: > 100 µM
SNB-75 CNS
  GI50: 1.22 µM
  TGI: 5.67 µM
OVCAR-5 ovarian
  GI50: 3.3 µM
  TGI: 82.7 µM
TK-10 renal
  GI50: 8.33 µM
  TGI: 40 µM
COLO 205 colon
  GI50: 4.48 µM
  TGI: 26.7 µM
IGROV1 ovarian
  GI50: 1.57 µM
  TGI: 6.55 µM
HCC-2998 colon
  GI50: 3.75 µM
  TGI: 63.8 µM
HT29 colon
  GI50: 3.31 µM
  TGI: > 100 µM
CAKI-1 renal
  GI50: 2.37 µM
  TGI: > 100 µM
SK-MEL-2 melanoma
  GI50: 4.26 µM
  TGI: 21.6 µM
SK-MEL-28 melanoma
  GI50: 3.39 µM
  TGI: 41 µM
OVCAR-3 ovarian
  GI50: 2.91 µM
  TGI: 40.3 µM
NCI/ADR-RES ovarian
  GI50: 4.4 µM
  TGI: 98.2 µM
NCI-H460 lung
  GI50: 3.24 µM
  TGI: > 100 µM
HCT-116 colon
  GI50: 5.84 µM
  TGI: > 100 µM
UACC-257 melanoma
  GI50: 4.22 µM
  TGI: 63.3 µM
MDA-MB-231 breast
  GI50: 2.6 µM
  TGI: 30.4 µM
HOP-92 NSCLC
  GI50: 1.79 µM
  TGI: 7.79 µM
OVCAR-4 ovarian
  GI50: 2.84 µM
  TGI: 18.5 µM
SF-539 CNS
  GI50: 2.88 µM
  TGI: 15.8 µM
SN12C renal
  GI50: 2.03 µM
  TGI: > 100 µM
NCI-H23 lung
  GI50: 3.6 µM
  TGI: 64.3 µM
MCF7 breast
  GI50: 6 µM
  TGI: 53.4 µM
CCRF-CEM leukemia
  GI50: 4.25 µM
  TGI: > 100 µM
UACC-62 melanoma
  GI50: 1.84 µM
  TGI: 10.2 µM
NCI-H226 lung
  GI50: 1.77 µM
  TGI: 15.4 µM
786-0 renal
  GI50: 3.86 µM
  TGI: > 100 µM
A498 renal
  GI50: 2.07 µM
  TGI: 6.17 µM
BT-549 breast
  GI50: 2.7 µM
  TGI: 22.7 µM
UO-31 renal
  GI50: 0.554 µM
  TGI: 8.69 µM
U251 CNS
  GI50: 4.71 µM
  TGI: > 100 µM
SF-268 CNS
  GI50: 3.84 µM
  TGI: > 100 µM
HOP-62 NSCLC
  GI50: 2.7 µM
  TGI: 57.3 µM
EKVX NSCLC
  GI50: 2.55 µM
  TGI: 11.3 µM
ACHN renal
  GI50: 2.89 µM
  TGI: > 100 µM
SF-295 CNS
  GI50: 2.38 µM
  TGI: 14.1 µM
T-47D breast
  GI50: 4.06 µM
  TGI: 76.5 µM
A549 NSCLC
  GI50: 3.64 µM
  TGI: > 100 µM
MOLT-4 leukemia
  GI50: 3.11 µM
  TGI: > 100 µM
OVCAR-8 ovarian
  GI50: 3.19 µM
  TGI: > 100 µM
NCI-H522 lung
  GI50: 3.95 µM
  TGI: > 100 µM
SR leukemia
  GI50: 3.52 µM
  TGI: > 100 µM
